Data reported in article PMC5218480 (PLoS ONE, 2017).

System: MV-4-11 cells
Assay: Gene expression microarray analysis (Affymetrix PrimeView) and GSEA
Format: cell-based, human
Set-up: RFU PODN (11730768_x_at) / Fold change /veh PODN (11730768_x_at) / RFU LINC00158 (11744669_a_at) / Fold change /veh LINC00158 (11744669_a_at) / RFU DUSP10 (11751237_a_at) / Fold change /veh DUSP10 (11751237_a_at) / RFU ID3 (11757404_x_at) / Fold change /veh ID3 (11757404_x_at) / RFU PLEKHG5 (11737974_s_at) / Fold change /veh PLEKHG5 (11737974_s_at) / RFU LRRC4B (11730491_at) / Fold change /veh LRRC4B (11730491_at) / RFU GIMAP4 (11747438_a_at) / Fold change /veh GIMAP4 (11747438_a_at) / RFU KRT8 (11758183_x_at) / Fold change /veh KRT8 (11758183_x_at) / RFU CNN1 (11734310_a_at) / Fold change /veh CNN1 (11734310_a_at) / RFU VPS37D (11726825_at) / Fold change /veh VPS37D (11726825_at) / RFU C10orf10 (11716522_x_at) / Fold change /veh C10orf10 (11716522_x_at) / RFU KIR2DL2 /// KIR2DL4 /// KIR2DL5A /// KIR2DL5B /// KIR2DS1 /// KIR2DS2 /// KIR2DS3 /// KIR2DS4 /// KIR3DL3 /// KIR3DL3 /// KIR3DS1 (11738374_at) / Fold change /veh KIR2DL2 /// KIR2DL4 /// KIR2DL5A /// KIR2DL5B /// KIR2DS1 /// KIR2DS2 /// KIR2DS3 /// KIR2DS4 /// KIR3DL3 /// KIR3DL3 /// KIR3DS1 (11738374_at) / RFU C1QL1 (11718748_at) / Fold change /veh C1QL1 (11718748_at) / RFU TMPRSS4 (11747572_a_at) / Fold change /veh TMPRSS4 (11747572_a_at) / RFU HAMP (11756126_x_at) / Fold change /veh HAMP (11756126_x_at) / RFU RNFT2 (11725882_a_at) / Fold change /veh RNFT2 (11725882_a_at) / RFU NR4A2 (11747474_a_at) / Fold change /veh NR4A2 (11747474_a_at) / RFU ABCC12 (11746883_a_at) / Fold change /veh ABCC12 (11746883_a_at) / RFU TMEM136 (11760407_x_at) / Fold change /veh TMEM136 (11760407_x_at) / RFU CLDN22 /// WWC2 (11732394_at) / Fold change /veh CLDN22 /// WWC2 (11732394_at) / RFU HLA-DPB1 (11760878_x_at) / Fold change /veh HLA-DPB1 (11760878_x_at) / RFU SPINT1 (11716480_a_at) / Fold change /veh SPINT1 (11716480_a_at) / RFU GAP43 (11754022_s_at) / Fold change /veh GAP43 (11754022_s_at) / RFU A4GNT (11735810_at) / Fold change /veh A4GNT (11735810_at) / RFU PRB3 (11715151_x_at) / Fold change /veh PRB3 (11715151_x_at) / RFU TUBB4B (11761932_at) / Fold change /veh TUBB4B (11761932_at) / RFU CAPN14 (11732068_a_at) / Fold change /veh CAPN14 (11732068_a_at) / RFU TMCC2 (11721928_a_at) / Fold change /veh TMCC2 (11721928_a_at) / RFU IRGQ (11745062_a_at) / Fold change /veh IRGQ (11745062_a_at) / RFU FAM174B (11720279_a_at) / Fold change /veh FAM174B (11720279_a_at) / RFU TMPRSS4 (11748680_a_at) / Fold change /veh TMPRSS4 (11748680_a_at) / RFU FAM212B (11763350_a_at) / Fold change /veh FAM212B (11763350_a_at) / RFU PLEKHG5 (11743358_a_at) / Fold change /veh PLEKHG5 (11743358_a_at) / RFU ZSCAN30 (11745921_a_at) / Fold change /veh ZSCAN30 (11745921_a_at) / RFU CMKLR1 (11741424_a_at) / Fold change /veh CMKLR1 (11741424_a_at) / RFU LOC101060620 /// MAPK8IP1 (11723275_at) / Fold change /veh LOC101060620 /// MAPK8IP1 (11723275_at) / RFU SPTSSB (11747773_x_at) / Fold change /veh SPTSSB (11747773_x_at) / RFU PRSS12 (11739890_at) / Fold change /veh PRSS12 (11739890_at) / RFU BIN1 (11741810_x_at) / Fold change /veh BIN1 (11741810_x_at) / RFU WNT11 (11732464_a_at) / Fold change /veh WNT11 (11732464_a_at) / RFU C10orf10 (11716521_a_at) / Fold change /veh C10orf10 (11716521_a_at) / RFU C5orf56 (11738089_at) / Fold change /veh C5orf56 (11738089_at) / RFU CYB561 (11721691_x_at) / Fold change /veh CYB561 (11721691_x_at) / RFU ANKRD19P (11752326_a_at) / Fold change /veh ANKRD19P (11752326_a_at) / RFU OR2T12 /// OR2T33 /// OR2T8 (11738714_s_at) / Fold change /veh OR2T12 /// OR2T33 /// OR2T8 (11738714_s_at) / RFU VCAN (11748164_a_at) / Fold change /veh VCAN (11748164_a_at) / RFU JSRP1 (11732532_at) / Fold change /veh JSRP1 (11732532_at) / RFU KRTAP10-11 (11738290_x_at) / Fold change /veh KRTAP10-11 (11738290_x_at) / RFU MYO3A (11730013_a_at) / Fold change /veh MYO3A (11730013_a_at) / RFU EBF3 (11725865_a_at) / Fold change /veh EBF3 (11725865_a_at) / RFU CAMK2N1 (11719241_x_at) / Fold change /veh CAMK2N1 (11719241_x_at) / RFU C5orf56 (11738088_a_at) / Fold change /veh C5orf56 (11738088_a_at) / RFU OLFML3 (11715873_a_at) / Fold change /veh OLFML3 (11715873_a_at) / RFU LOC100653217 /// NTM (11731650_a_at) / Fold change /veh LOC100653217 /// NTM (11731650_a_at) / RFU MAPK11 (11762145_a_at) / Fold change /veh MAPK11 (11762145_a_at) / RFU FIZ1 (11724087_x_at) / Fold change /veh FIZ1 (11724087_x_at) / RFU OASL (11726364_x_at) / Fold change /veh OASL (11726364_x_at) / RFU SOX15 (11748057_x_at) / Fold change /veh SOX15 (11748057_x_at) / RFU CD79A (11719716_a_at) / Fold change /veh CD79A (11719716_a_at) / RFU HIST1H1D (11736915_at) / Fold change /veh HIST1H1D (11736915_at) / RFU CASKIN2 (11723855_a_at) / Fold change /veh CASKIN2 (11723855_a_at) / RFU LOC730098 (11760151_x_at) / Fold change /veh LOC730098 (11760151_x_at) / RFU OR4N2 (11742367_at) / Fold change /veh OR4N2 (11742367_at) / RFU PRRT2 (11749266_a_at) / Fold change /veh PRRT2 (11749266_a_at) / RFU SNX32 (11753110_a_at) / Fold change /veh SNX32 (11753110_a_at) / RFU CDHR5 (11726645_a_at) / Fold change /veh CDHR5 (11726645_a_at) / RFU RCAN1 (11760418_a_at) / Fold change /veh RCAN1 (11760418_a_at) / RFU FAM167A (11723789_a_at) / Fold change /veh FAM167A (11723789_a_at) / RFU FAM26E (11764081_at) / Fold change /veh FAM26E (11764081_at) / RFU ISYNA1 (11749810_s_at) / Fold change /veh ISYNA1 (11749810_s_at) / RFU ACY1 (11761880_at) / Fold change /veh ACY1 (11761880_at) / RFU 11764098_at / Fold change /veh 11764098_at / RFU SAMD14 (11745864_x_at) / Fold change /veh SAMD14 (11745864_x_at) / RFU NPB (11741838_a_at) / Fold change /veh NPB (11741838_a_at) / RFU TMPRSS6 (11731388_a_at) / Fold change /veh TMPRSS6 (11731388_a_at) / RFU KRTAP10-2 (11738614_at) / Fold change /veh KRTAP10-2 (11738614_at) / RFU ARHGAP8 /// PRR5-ARHGAP8 (11727945_x_at) / Fold change /veh ARHGAP8 /// PRR5-ARHGAP8 (11727945_x_at) / RFU KRTAP5-7 /// NADSYN1 (11734609_at) / Fold change /veh KRTAP5-7 /// NADSYN1 (11734609_at) / RFU RASL12 (11751679_a_at) / Fold change /veh RASL12 (11751679_a_at) / RFU CDKN2B (11736163_a_at) / Fold change /veh CDKN2B (11736163_a_at) / RFU PRF1 (11729649_at) / Fold change /veh PRF1 (11729649_at) / RFU, ZNF638 /// ZNF638-IT1 / Fold change vs veh, ZNF638 /// ZNF638-IT1 / RFU, PANK3 / Fold change vs veh, PANK3 / RFU, SH3YL1 / Fold change vs veh, SH3YL1 / RFU, ZEB2 / Fold change vs veh, ZEB2 / RFU, NRIP1 / Fold change vs veh, NRIP1 / RFU, PTTG1IP / Fold change vs veh, PTTG1IP / RFU, CAPN2 / Fold change vs veh, CAPN2 / RFU, MED14 / Fold change vs veh, MED14 / RFU, SNORA58 / Fold change vs veh, SNORA58 / RFU, C1orf63 / Fold change vs veh, C1orf63 / RFU, LRRFIP1 / Fold change vs veh, LRRFIP1 / RFU, NDUFAF7 / Fold change vs veh, NDUFAF7 / RFU, SLC12A2 / Fold change vs veh, SLC12A2 / RFU, IBTK / Fold change vs veh, IBTK / RFU, ESF1 / Fold change vs veh, ESF1 / Fold change vs veh, TMEM50B / RFU, TAOK1 / Fold change vs veh, TAOK1 / RFU, ACBD3 / Fold change vs veh, ACBD3 / RFU, TMA16 / Fold change vs veh, TMA16 / RFU, RWDD3 / Fold change vs veh, RWDD3 / RFU, BCAT1 / Fold change vs veh, BCAT1 / RFU, EDEM3 / Fold change vs veh, EDEM3 / RFU, TMEM33 / Fold change vs veh, TMEM33 / RFU, WDR75 / Fold change vs veh, WDR75 / RFU, AHCTF1 / Fold change vs veh, AHCTF1 / RFU, TFRC / Fold change vs veh, TFRC / RFU, ZDHHC17 / Fold change vs veh, ZDHHC17 / RFU, NOM1 / Fold change vs veh, NOM1 / RFU, ARL8B / Fold change vs veh, ARL8B / RFU, ZBTB11 / Fold change vs veh, ZBTB11 / RFU, TAMM41 / Fold change vs veh, TAMM41 / RFU, KIAA1704 /// LOC100996395 / Fold change vs veh, KIAA1704 /// LOC100996395 / RFU, ING1 / Fold change vs veh, ING1 / RFU, TRMT61B / Fold change vs veh, TRMT61B / RFU, FUBP3 / Fold change vs veh, FUBP3 / RFU, TP53 / Fold change vs veh, TP53 / RFU, TNKS2 / Fold change vs veh, TNKS2 / RFU, ZFP14 / Fold change vs veh, ZFP14 / RFU, ACTR2 / Fold change vs veh, ACTR2 / RFU, PPP3R1 / Fold change vs veh, PPP3R1 / RFU, PIK3R1 / Fold change vs veh, PIK3R1 / RFU, HNRNPA1 / Fold change vs veh, HNRNPA1 / RFU, RNF170 / Fold change vs veh, RNF170 / RFU, ZNF28 / Fold change vs veh, ZNF28 / RFU, RNGTT / Fold change vs veh, RNGTT / RFU, OGT / Fold change vs veh, OGT / RFU, BRD1 / Fold change vs veh, BRD1 / RFU, MARS / Fold change vs veh, MARS / RFU, ZNF655 / Fold change vs veh, ZNF655 / RFU, FAHD1 / Fold change vs veh, FAHD1 / RFU, BDP1 / Fold change vs veh, BDP1 / RFU, LRRCC1 / Fold change vs veh, LRRCC1 / RFU, ARID1A / Fold change vs veh, ARID1A / RFU, ZNF146 / Fold change vs veh, ZNF146 / RFU, ZNF330 / Fold change vs veh, ZNF330 / RFU, GPN3 / Fold change vs veh, GPN3 / RFU, C9orf123 / Fold change vs veh, C9orf123 / RFU, N4BP2L2 / Fold change vs veh, N4BP2L2 / RFU, ARFIP1 / Fold change vs veh, ARFIP1 / RFU, FAM179B / Fold change vs veh, FAM179B / RFU, BCL10 / Fold change vs veh, BCL10 / RFU, UHRF1BP1L / Fold change vs veh, UHRF1BP1L / RFU, BET1 / Fold change vs veh, BET1 / RFU, CNOT2 / Fold change vs veh, CNOT2 / RFU, ZNF268 / Fold change vs veh, ZNF268 / Fold change vs veh, ZNF507 / RFU, DGCR2 / Fold change vs veh, DGCR2 / RFU, WDSUB1 / Fold change vs veh, WDSUB1 / Fold change vs veh, HSP90B1 /// MIR3652 / RFU, ADSS / Fold change vs veh, ADSS / RFU, GK / Fold change vs veh, GK / RFU, ZNF148 / Fold change vs veh, ZNF148 / RFU, TAF9 / Fold change vs veh, TAF9 / RFU, SLC1A5 / Fold change vs veh, SLC1A5 / RFU, SLMO2 / Fold change vs veh, SLMO2 / RFU, ABCC4 / Fold change vs veh, ABCC4 / RFU, LOC101060439 /// RAP1B / Fold change vs veh, LOC101060439 /// RAP1B / RFU, RFX7 / Fold change vs veh, RFX7 / RFU, GTPBP10 / Fold change vs veh, GTPBP10 / RFU, CNEP1R1 / Fold change vs veh, CNEP1R1 / RFU, BIVM-ERCC5 /// ERCC5 / Fold change vs veh, BIVM-ERCC5 /// ERCC5 / RFU, ILF3 / Fold change vs veh, ILF3 / RFU 11762660_at / Fold change /veh 11762660_at / RFU VCAN (11757783_s_at) / Fold change /veh VCAN (11757783_s_at) / RFU DDX43 (11728927_at) / Fold change /veh DDX43 (11728927_at) / RFU KRT8 (11758188_x_at) / Fold change /veh KRT8 (11758188_x_at) / RFU NKD1 (11759106_at) / Fold change /veh NKD1 (11759106_at) / RFU SRD5A1 (11742802_a_at) / Fold change /veh SRD5A1 (11742802_a_at) / RFU TPSAB1 /// TPSB2 (11721975_s_at) / Fold change /veh TPSAB1 /// TPSB2 (11721975_s_at) / RFU GSTM3 (11746129_a_at) / Fold change /veh GSTM3 (11746129_a_at) / RFU IL23R (11737362_x_at) / Fold change /veh IL23R (11737362_x_at) / RFU TMEM51 (11727254_a_at) / Fold change /veh TMEM51 (11727254_a_at) / RFU PIWIL2 (11732686_x_at) / Fold change /veh PIWIL2 (11732686_x_at) / RFU ORM1 (11744905_x_at) / Fold change /veh ORM1 (11744905_x_at) / RFU CCDC152 (11743942_at) / Fold change /veh CCDC152 (11743942_at) / RFU ECM1 (11717891_a_at) / Fold change /veh ECM1 (11717891_a_at) / RFU IL23R (11748794_a_at) / Fold change /veh IL23R (11748794_a_at) / RFU TNFAIP8L3 (11732012_x_at) / Fold change /veh TNFAIP8L3 (11732012_x_at) / RFU MBOAT4 (11741988_at) / Fold change /veh MBOAT4 (11741988_at) / RFU 11764193_at / Fold change /veh 11764193_at / RFU TMEM53 (11763286_at) / Fold change /veh TMEM53 (11763286_at) / RFU MAGEB2 (11727129_at) / Fold change /veh MAGEB2 (11727129_at) / RFU TMEM200A (11744735_a_at) / Fold change /veh TMEM200A (11744735_a_at) / RFU CCDC152 (11751479_a_at) / Fold change /veh CCDC152 (11751479_a_at) / RFU FAM211A (11726209_a_at) / Fold change /veh FAM211A (11726209_a_at) / RFU RGS16 (11746705_a_at) / Fold change /veh RGS16 (11746705_a_at) / RFU VCAN (11755009_s_at) / Fold change /veh VCAN (11755009_s_at) / RFU RHOB (11743442_s_at) / Fold change /veh RHOB (11743442_s_at) / RFU RGS16 (11720943_a_at) / Fold change /veh RGS16 (11720943_a_at) / RFU RGS16 (11720944_at) / Fold change /veh RGS16 (11720944_at) / RFU, VPS4B / Fold change vs veh, VPS4B / RFU, CREB1 / Fold change vs veh, CREB1 / RFU, DNAJC13 / Fold change vs veh, DNAJC13 / RFU, GNAQ / Fold change vs veh, GNAQ / RFU, CDK5R1 / Fold change vs veh, CDK5R1 / RFU, ZRANB3 / Fold change vs veh, ZRANB3 / RFU, CUL4A / Fold change vs veh, CUL4A / RFU, CCNY / Fold change vs veh, CCNY / RFU, UFL1 / Fold change vs veh, UFL1 / RFU, COG3 / Fold change vs veh, COG3 / RFU, DIAPH2 / Fold change vs veh, DIAPH2 / RFU, SKA2 / Fold change vs veh, SKA2 / RFU, AFF3 / Fold change vs veh, AFF3 / RFU, LMF1 / Fold change vs veh, LMF1 / RFU, IPO11 / Fold change vs veh, IPO11 / RFU, DFFB / Fold change vs veh, DFFB / RFU, FOXP1 / Fold change vs veh, FOXP1 / RFU, CARD8 / Fold change vs veh, CARD8 / RFU, STRN3 / Fold change vs veh, STRN3 / RFU, ADK / Fold change vs veh, ADK / RFU, RASSF2 / Fold change vs veh, RASSF2 / RFU, WIPF1 / Fold change vs veh, WIPF1 / RFU, LARP1B / Fold change vs veh, LARP1B / RFU, RASA1 / Fold change vs veh, RASA1 / RFU, RB1 / Fold change vs veh, RB1 / RFU, PPFIA1 / Fold change vs veh, PPFIA1 / RFU, MAT2A / Fold change vs veh, MAT2A / RFU, CCT5 / Fold change vs veh, CCT5 / RFU, WDR92 / Fold change vs veh, WDR92 / RFU, CUX1 / Fold change vs veh, CUX1 / RFU, TTC7A / Fold change vs veh, TTC7A / RFU, TMEM135 / Fold change vs veh, TMEM135 / RFU, DEPTOR / Fold change vs veh, DEPTOR / RFU, CPM / Fold change vs veh, CPM / RFU, DNAJB6 / Fold change vs veh, DNAJB6 / RFU, CACNA2D3 / Fold change vs veh, CACNA2D3 / RFU, DTX4 / Fold change vs veh, DTX4 / RFU, TFCP2 / Fold change vs veh, TFCP2 / RFU, GMCL1 /// GMCL1P1 / Fold change vs veh, GMCL1 /// GMCL1P1 / RFU, AEBP2 / Fold change vs veh, AEBP2 / RFU, SNHG1 /// SNORD22 /// SNORD25 /// SNORD26 /// SNORD27 /// SNORD28 /// SNORD29 /// SNORD31 / Fold change vs veh, SNHG1 /// SNORD22 /// SNORD25 /// SNORD26 /// SNORD27 /// SNORD28 /// SNORD29 /// SNORD31 / Fold change (Aza/veh), C12orf56 (ProbeSet 11735607_a_at) / Fold change (ACY-1035/veh), C12orf56 (ProbeSet 11735607_a_at) / Fold change (Aza/veh), FGFR1OP (ProbeSet 11751329_s_at) / Fold change (ACY-1035/veh), FGFR1OP (ProbeSet 11751329_s_at) / Fold change (Aza/veh), VPS36 (ProbeSet 11739960_a_at) / Fold change (ACY-1035/veh), VPS36 (ProbeSet 11739960_a_at) / RFU SYPL1 (11715823_x_at) / Fold change /veh SYPL1 (11715823_x_at) / RFU IGFBP7 (11715501_s_at) / Fold change /veh IGFBP7 (11715501_s_at) / RFU REEP3 (11722064_at) / Fold change /veh REEP3 (11722064_at) / RFU IGLL1 (11728026_x_at) / Fold change /veh IGLL1 (11728026_x_at): dose or concentration left out as unconfirmed
Conditions: ProbeSet 11745428_a_at; LIST D

## Nc1ccc(-c2cccs2)cc1NC(=O)c1ccc2c(c1)cc(C1CC1)n2CCN1CCOCC1 [ACY-1035]
  RFU, DFFB: 104.10 RFU
